{"source": "patent US20020137929A1", "about": "“1 - (3-heterocyclylphenyl) isothiourea, -isourea, -guanidine and -amidine herbicidal agents” (Intellectual Property Department, BASF Aktiengesellschaft, priority 1998, published 2002)", "key": {"ORYSAT (Rice, Tebonnet)": {"system": "ORYSAT (Rice, Tebonnet)", "experiment": "Preemergence herbicidal evaluation", "assay_type": "in vivo, Oryza sativa, (L.) Tebonnet", "conditions": "rated 4-5 weeks after treatment", "outline": "(§1)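 Visual 0-9 rating vs control (stand, vigor, malformation, size, chlorosis, overall appearance), scored 4-5 wk after spraying. Seeded soil cups were treated preemergence with compound in aqueous acetone, ~0.0156-0.500 kg/ha equivalent.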"}, "AMBEL (Ragweed, Common) [1]": {"system": "AMBEL (Ragweed, Common)", "experiment": "Preemergence herbicidal evaluation", "assay_type": "in vivo, Ambrosia artemisifolia", "conditions": "rated 4-5 weeks after treatment", "outline": "as §1"}, "CASOB (Sicklepod) [2]": {"system": "CASOB (Sicklepod)", "experiment": "Preemergence herbicidal evaluation", "assay_type": "in vivo, Cassia obtusifolia", "conditions": "rated 4-5 weeks after treatment", "outline": "as §1"}, "[3]": {"system": "GLXMAW (Soybean, Williams)", "experiment": "Preemergence herbicidal evaluation", "assay_type": "in vivo, Glycine max, (L.) Merr. cv Williams", "conditions": "rated 4-5 weeks after treatment", "outline": "as §1"}, "[4]": {"system": "SAGPY (Arrowhead (Pygmaea))", "experiment": "Preemergence weed control under flooded paddy conditions", "assay_type": "in vivo, Sagittaria pygmaea", "conditions": "rated 3-4 weeks after treatment", "outline": "(§2)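 Values are visual 0-9 scores against a control for a preemergence application into paddy flood water at about 0.0313 to 0.500 kg/ha. Greenhouse duration was three to four weeks.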"}, "[5]": {"system": "CHEAL (Lambsquarters, Common)", "experiment": "Preemergence herbicidal evaluation", "assay_type": "in vivo, Chenopodium album", "conditions": "rated 4-5 weeks after treatment", "outline": "as §1"}, "CASOB (Sicklepod) [6]": {"system": "CASOB (Sicklepod)", "experiment": "Postemergence herbicidal evaluation", "assay_type": "in vivo, Cassia obtusifolia", "outline": "(§3)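 First, seedlings were raised for around two weeks. Next, test material in 50/50 acetone/water containing 0.5% TWEEN 20 was sprayed through a nozzle at 40 psi, equivalent to about 0.0156–0.500 kg/ha. Finally, after 4–5 weeks in the greenhouse, plants were rated 0–9.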"}, "[7]": {"system": "IPOHE (Morningglory, Ivyleaf)", "experiment": "Preemergence herbicidal evaluation", "assay_type": "in vivo, Ipomoea hederacea", "conditions": "rated 4-5 weeks after treatment", "outline": "as §1"}, "[8]": {"system": "IPOHE (Morningglory, Ivyleaf)", "experiment": "Postemergence herbicidal evaluation", "assay_type": "in vivo, Ipomoea hederacea", "outline": "as §3"}, "[9]": {"system": "GLXMAW (Soybean, Williams)", "experiment": "Postemergence herbicidal evaluation", "assay_type": "in vivo, Glycine max, (L.) Merr. cv Williams", "outline": "as §3"}, "MOOVA (Monochoria)": {"system": "MOOVA (Monochoria)", "experiment": "Preemergence weed control under flooded paddy conditions", "assay_type": "in vivo, Monochoria vaginalis", "conditions": "rated 3-4 weeks after treatment", "outline": "as §2"}, "[10]": {"system": "TRZAWR (Wheat, Winter, cv Riband)", "experiment": "Postemergence herbicidal evaluation", "assay_type": "in vivo, Triticum aestivum", "outline": "as §3"}, "ABUTH (Velvetleaf)": {"system": "ABUTH (Velvetleaf)", "experiment": "Preemergence herbicidal evaluation", "assay_type": "in vivo, Abutilon theophrasti", "conditions": "rated 4-5 weeks after treatment", "outline": "as §1"}, "[11]": {"system": "CHEAL (Lambsquarters, Common)", "experiment": "Postemergence herbicidal evaluation", "assay_type": "in vivo, Chenopodium album", "outline": "as §3"}, "ECHCG (Barnyardgrass)": {"system": "ECHCG (Barnyardgrass)", "experiment": "Postemergence herbicidal evaluation", "assay_type": "in vivo, Echinochloa crus-galli", "outline": "as §3"}, "AMBEL (Ragweed, Common) [12]": {"system": "AMBEL (Ragweed, Common)", "experiment": "Postemergence herbicidal evaluation", "assay_type": "in vivo, Ambrosia artemisifolia", "outline": "as §3"}}, "data": [{"smiles": "Cn1c(C(F)(F)F)cc(=O)n(-c2cc(N=C3SCC(=O)N3CC(=O)OC(C)(C)C)c(Cl)cc2F)c1=O", "note": "[Compound 43, tert-Butyl 2-{{2-chloro-5-[3,6-dihydro-3-methyl-2,6-dioxo-4-(trifluoromethyl)-1(2H)-pyrimidinyl]-4-fluorophenyl}imino}-4-oxo-3-thiazolidineacetate]", "values": [{"measurement": "Preemergence herbicidal rating ORYSAT", "setting": "ORYSAT (Rice, Tebonnet); rate 0.0156 kg/ha", "result": 0.0}, {"measurement": "Preemergence herbicidal rating ORYSAT", "setting": "ORYSAT (Rice, Tebonnet); rate 0.0313 kg/ha", "result": 0.0}, {"measurement": "Preemergence herbicidal rating ORYSAT", "setting": "ORYSAT (Rice, Tebonnet); rate 0.0625 kg/ha", "result": 0.0}, {"measurement": "Preemergence herbicidal rating ORYSAT", "setting": "ORYSAT (Rice, Tebonnet); rate 0.1250 kg/ha", "result": 0.0}, {"measurement": "Preemergence herbicidal rating ORYSAT", "setting": "ORYSAT (Rice, Tebonnet); rate 0.2500 kg/ha", "result": 0.0}, {"measurement": "Preemergence herbicidal rating AMBEL", "setting": "AMBEL (Ragweed, Common) [1]; rate 0.0156 kg/ha", "result": 0.0}, {"measurement": "Preemergence herbicidal rating AMBEL", "setting": "AMBEL (Ragweed, Common) [1]; rate 0.0313 kg/ha", "result": 0.0}, {"measurement": "Preemergence herbicidal rating AMBEL", "setting": "AMBEL (Ragweed, Common) [1]; rate 0.0625 kg/ha", "result": 0.0}, {"measurement": "Preemergence herbicidal rating AMBEL", "setting": "AMBEL (Ragweed, Common) [1]; rate 0.1250 kg/ha", "result": 3.0}, {"measurement": "Preemergence herbicidal rating AMBEL", "setting": "AMBEL (Ragweed, Common) [1]; rate 0.2500 kg/ha", "result": 4.0}, {"measurement": "Preemergence herbicidal rating CASOB", "setting": "CASOB (Sicklepod) [2]; rate 0.0156 kg/ha", "result": 0.0}, {"measurement": "Preemergence herbicidal rating CASOB", "setting": "CASOB (Sicklepod) [2]; rate 0.0313 kg/ha", "result": 0.0}, {"measurement": "Preemergence herbicidal rating CASOB", "setting": "CASOB (Sicklepod) [2]; rate 0.0625 kg/ha", "result": 0.0}, {"measurement": "Preemergence herbicidal rating CASOB", "setting": "CASOB (Sicklepod) [2]; rate 0.1250 kg/ha", "result": 8.0}, {"measurement": "Preemergence herbicidal rating CASOB", "setting": "CASOB (Sicklepod) [2]; rate 0.2500 kg/ha", "result": 9.0}, {"measurement": "Preemergence herbicidal rating GLXMAW", "setting": "[3]; rate 0.0156 kg/ha", "result": 0.0}, {"measurement": "Preemergence herbicidal rating GLXMAW", "setting": "[3]; rate 0.0313 kg/ha", "result": 0.0}, {"measurement": "Preemergence herbicidal rating GLXMAW", "setting": "[3]; rate 0.0625 kg/ha", "result": 0.0}, {"measurement": "Preemergence herbicidal rating GLXMAW", "setting": "[3]; rate 0.1250 kg/ha", "result": 0.0}, {"measurement": "Preemergence herbicidal rating GLXMAW", "setting": "[3]; rate 0.2500 kg/ha", "result": 2.0}, {"measurement": "Herbicidal rating SAGPY", "setting": "[4]; 0.0313 kg/ha", "result": 7.0}, {"measurement": "Herbicidal rating SAGPY", "setting": "[4]; 0.0625 kg/ha", "result": 7.0}, {"measurement": "Herbicidal rating SAGPY", "setting": "[4]; 0.1250 kg/ha", "result": 7.0}, {"measurement": "Herbicidal rating SAGPY", "setting": "[4]; 0.2500 kg/ha", "result": 9.0}, {"measurement": "Preemergence herbicidal rating CHEAL", "setting": "[5]; rate 0.0156 kg/ha", "result": 9.0}, {"measurement": "Preemergence herbicidal rating CHEAL", "setting": "[5]; rate 0.0313 kg/ha", "result": 9.0}, {"measurement": "Preemergence herbicidal rating CHEAL", "setting": "[5]; rate 0.0625 kg/ha", "result": 9.0}, {"measurement": "Preemergence herbicidal rating CHEAL", "setting": "[5]; rate 0.1250 kg/ha", "result": 9.0}, {"measurement": "Preemergence herbicidal rating CHEAL", "setting": "[5]; rate 0.2500 kg/ha", "result": 9.0}, {"measurement": "Postemergence herbicidal rating CASOB", "setting": "CASOB (Sicklepod) [6]; Rate 0.0158 kg/ha", "result": 9.0}, {"measurement": "Postemergence herbicidal rating CASOB", "setting": "CASOB (Sicklepod) [6]; Rate 0.0315 kg/ha", "result": 9.0}, {"measurement": "Postemergence herbicidal rating CASOB", "setting": "CASOB (Sicklepod) [6]; Rate 0.0630 kg/ha", "result": 9.0}, {"measurement": "Preemergence herbicidal rating IPOHE", "setting": "[7]; rate 0.0156 kg/ha", "result": 0.0}, {"measurement": "Preemergence herbicidal rating IPOHE", "setting": "[7]; rate 0.0313 kg/ha", "result": 0.0}, {"measurement": "Preemergence herbicidal rating IPOHE", "setting": "[7]; rate 0.0625 kg/ha", "result": 0.0}, {"measurement": "Preemergence herbicidal rating IPOHE", "setting": "[7]; rate 0.1250 kg/ha", "result": 2.0}, {"measurement": "Preemergence herbicidal rating IPOHE", "setting": "[7]; rate 0.2500 kg/ha", "result": 9.0}, {"measurement": "Postemergence herbicidal rating IPOHE", "setting": "[8]; Rate 0.0158 kg/ha", "result": 9.0}, {"measurement": "Postemergence herbicidal rating IPOHE", "setting": "[8]; Rate 0.0315 kg/ha", "result": 9.0}, {"measurement": "Postemergence herbicidal rating IPOHE", "setting": "[8]; Rate 0.0630 kg/ha", "result": 9.0}, {"measurement": "Postemergence herbicidal rating GLXMAW", "setting": "[9]; Rate 0.0158 kg/ha", "result": 7.5}, {"measurement": "Postemergence herbicidal rating GLXMAW", "setting": "[9]; Rate 0.0315 kg/ha", "result": 7.0}, {"measurement": "Postemergence herbicidal rating GLXMAW", "setting": "[9]; Rate 0.0630 kg/ha", "result": 7.0}, {"measurement": "Herbicidal rating MOOVA", "setting": "MOOVA (Monochoria); 0.0313 kg/ha", "result": 9.0}, {"measurement": "Herbicidal rating MOOVA", "setting": "MOOVA (Monochoria); 0.0625 kg/ha", "result": 9.0}, {"measurement": "Herbicidal rating MOOVA", "setting": "MOOVA (Monochoria); 0.1250 kg/ha", "result": 9.0}, {"measurement": "Herbicidal rating MOOVA", "setting": "MOOVA (Monochoria); 0.2500 kg/ha", "result": 9.0}, {"measurement": "Postemergence herbicidal rating TRZAWR", "setting": "[10]; Rate 0.0158 kg/ha", "result": 3.0}, {"measurement": "Postemergence herbicidal rating TRZAWR", "setting": "[10]; Rate 0.0315 kg/ha", "result": 3.5}, {"measurement": "Postemergence herbicidal rating TRZAWR", "setting": "[10]; Rate 0.0630 kg/ha", "result": 4.0}, {"measurement": "Preemergence herbicidal rating ABUTH", "setting": "ABUTH (Velvetleaf); rate 0.0156 kg/ha", "result": 9.0}, {"measurement": "Preemergence herbicidal rating ABUTH", "setting": "ABUTH (Velvetleaf); rate 0.0313 kg/ha", "result": 9.0}, {"measurement": "Preemergence herbicidal rating ABUTH", "setting": "ABUTH (Velvetleaf); rate 0.0625 kg/ha", "result": 9.0}, {"measurement": "Preemergence herbicidal rating ABUTH", "setting": "ABUTH (Velvetleaf); rate 0.1250 kg/ha", "result": 9.0}, {"measurement": "Preemergence herbicidal rating ABUTH", "setting": "ABUTH (Velvetleaf); rate 0.2500 kg/ha", "result": 9.0}, {"measurement": "Postemergence herbicidal rating CHEAL", "setting": "[11]; Rate 0.0158 kg/ha", "result": 5.0}, {"measurement": "Postemergence herbicidal rating CHEAL", "setting": "[11]; Rate 0.0315 kg/ha", "result": 9.0}, {"measurement": "Postemergence herbicidal rating CHEAL", "setting": "[11]; Rate 0.0630 kg/ha", "result": 9.0}, {"measurement": "Postemergence herbicidal rating ECHCG", "setting": "ECHCG (Barnyardgrass); Rate 0.0158 kg/ha", "result": 0.0}, {"measurement": "Postemergence herbicidal rating ECHCG", "setting": "ECHCG (Barnyardgrass); Rate 0.0315 kg/ha", "result": 0.0}, {"measurement": "Postemergence herbicidal rating ECHCG", "setting": "ECHCG (Barnyardgrass); Rate 0.0630 kg/ha", "result": 0.0}, {"measurement": "Postemergence herbicidal rating AMBEL", "setting": "AMBEL (Ragweed, Common) [12]; Rate 0.0158 kg/ha", "result": 9.0}, {"measurement": "Postemergence herbicidal rating AMBEL", "setting": "AMBEL (Ragweed, Common) [12]; Rate 0.0315 kg/ha", "result": 9.0}, {"measurement": "Postemergence herbicidal rating AMBEL", "setting": "AMBEL (Ragweed, Common) [12]; Rate 0.0630 kg/ha", "result": 9.0}]}]}
